What was measured:
Format in all cases: in vivo
[1] = system: Herpes Simplex virus type 2 (HSV-2, strain 35D); assay: Genital HSV-2 infection of female mice, intravaginal treatment, survival; settings: for %S (percent survivors) / MDD (mean day of death): N 14; for deaths: zinc acetate (0.1M)
[2] = system: Herpes Simplex virus type 2 (HSV-2, strain 35D); assay: Genital HSV-2 infection of female mice, virus titers in vaginal secretions; settings: 8.0 x 10^4 PFU; for Mean virus titer in swabs of mice which shed virus: value in brackets;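 on Mean virus titer in swabs of mice which shed virus: titer expressed as log PFU per ml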
[3] = Drug toxicity in non-infected female mice treated intravaginally; settings: zinc acetate intravaginally 3 x daily x 5 days, compared with saline
Method: Where indicated, non-infected mice (5 per group) were treated identically (3 times daily x 5) in order to determine drug toxicity. The groups of mice were weighed at the indicated times.
Non-infected female mice were treated intravaginally with the same drugs, at the same concentrations and with a schedule (3 x daily x 5 days). Animal weights were determined at the time of initiation of treatment (day 0), and again on day 4 (after 12 treatments were given), and again after treatments had been concluded on days 7, 11 and 15. The weights of the groups of mice treated with placebo or the high drug concentrations are shown on Table 3, and the differences in weights in Figure 4. […] Weight gains in mice treated with phyllanthoside (1 mg/ml) were slightly less than that of the above compounds, but by day 15, the mice had the same gain as those treated with phyllanthostatin I, saline or zinc acetate.

[4] = 8.0 x 10^3 PFU/0.1 ml, mg/ml cell empty (44 mg/ml in upper section)
[5] = 8.0 x 10^4 PFU/0.1 ml, 44 mg/ml intravaginally
[6] = day 2 after HSV-2 inoc., Zn(OAc)2 concentration not given
[7] = day 3 after HSV-2 inoc., Zn(OAc)2 concentration not given
[8] = day 4 after HSV-2 inoc., Zn(OAc)2 concentration not given

## zinc acetate [Zn(OAc)2, reference compound]
[1]; [4]
  %S (percent survivors): 79%
  MDD (mean day of death): 3.0 days
[1]; 8.0 x 10^3 PFU, two of the three deaths on day 4, probably not virus related
  deaths: 21.4%
[1]; [5]
  %S (percent survivors): 71%
  MDD (mean day of death): 8.3 days
[1]; 8.0 x 10^4 PFU
  deaths: 50%
[1]; second study, 8.0 x 10^4 PFU in 0.1 ml, positive control, concentration not given, 10 mice
  mice protected from lethal infection: 80%
[2]; day 1 after HSV-2 inoc., Zn(OAc)2 concentration not given
  Mean virus titer in swabs of mice which shed virus: (2.60) log PFU/ml
[2]; day 1 after HSV-2 inoc., Zn(OAc)2 concentration not printed
  Nv/Nt, swabs with virus/total swabs: 1/10
[2]; day 1 after HSV-2 inoc., Zn(OAc)2 concentration not printed, listed as zinc acetate
  Nv/Nt, swabs with virus/total swabs: One of 10
[2]; [6]
  Nv/Nt, swabs with virus/total swabs: 1/10
  Mean virus titer in swabs of mice which shed virus: (3.54) log PFU/ml
[2]; [7]
  Nv/Nt, swabs with virus/total swabs: 1/10
  Mean virus titer in swabs of mice which shed virus: (3.42) log PFU/ml
[2]; [8]
  Nv/Nt, swabs with virus/total swabs: 1/9
  Mean virus titer in swabs of mice which shed virus: (4.54) log PFU/ml
[2]; day 7 after HSV-2 inoc., Zn(OAc)2 concentration not given
  Nv/Nt, swabs with virus/total swabs: 0/8
[3]
  weight changes: essentially the same
